Source: patent publication US12681009B2, “Molecular target in cancer” (The Regents of the University of California, priority 2021, dated 2026)

Each compound was assayed against T1, Musashi RNA Binding Protein 2 (MSI2) (Homo sapiens, UniProt Q96DH6) (assay: MSI2:NUMB-Biotin5′ RNA binding assay HTRF, 10-point duplicate dose response curves of 512 compounds (FIG. 14)). Details: 10-point duplicate curves, 100 μM to 5.6 nM, 3× dilution, MSI2 (His tag) 5 nM, NUMB-Biotin5′ RNA 1.25 nM, Streptavidin XL665 5 nM, His TB-Cryptate 0.6 nM, pH 7.3, read-out: MSI2 IC50 (normalized FRET ratio).
T1 construct: purchased LS Bio G2396
T1 sequence (Q96DH6 whole entry): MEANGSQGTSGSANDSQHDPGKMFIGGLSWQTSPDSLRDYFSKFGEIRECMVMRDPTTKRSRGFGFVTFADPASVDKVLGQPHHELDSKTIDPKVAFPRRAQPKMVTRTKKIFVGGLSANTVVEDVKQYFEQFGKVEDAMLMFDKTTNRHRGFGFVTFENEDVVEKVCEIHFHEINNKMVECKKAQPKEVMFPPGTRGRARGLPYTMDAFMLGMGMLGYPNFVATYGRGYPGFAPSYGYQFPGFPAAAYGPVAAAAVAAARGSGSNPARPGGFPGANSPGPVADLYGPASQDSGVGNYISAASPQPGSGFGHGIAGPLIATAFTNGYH
Description: In some embodiments, a MSI2 binding assay was developed where streptavidin labeled with XL665 or d2 was used as the acceptor, and Terbium (Tb) cryptate was used as the donor. For example, in the MSI2 binding assay, NUMB RNA was biotinylated at the 5′ end to create NUMB-Biotin 5′ RNA, which was coupled to the XL665 or d2-labeled streptavidin acceptor through streptavidin-biotin interaction. The MSI2 protein was engineered to contain a His tag, which was coupled to the Tb cryptate donor through an anti-His antibody attached to the Tb cryptate. Due to the MSI2-NUMB RNA interaction, the XL665 or d2 acceptor was brought into proximity of the Tb cryptate donor, thus generating a detectable FRET signal. Parameters of the binding assay, including the concentrations of MSI2 and NUMB-Biotin 5′ RNA, were optimized. Thus, the interaction of the MSI2 protein to NUMB-Biotin 5′ RNA could create a detectable FRET signal that can be used for subsequent binding assays and screening for modulators of MSI2-RNA interactions.
Reagents and protein/peptide: MSI2-LS Bio G2396 (provided in 20 mM Tris-HCL pH 8.0, 150 mM NaCl, 10% glycerol, 1 mM DTT); U1A-LS Bio G19194-10 (provided in 16 mM HEPES, pH 7.6, 400 mM NaCl, 20% glycerol); NUMB 5′Biotin—(IDT); NUMB 5′—(IDT); U1A RNA 5′ Biotin—(IDT); U1A RNA 5′—(IDT); HEPES pH 7.3 (RNase/DNase free)—(Fisher—BP299); Molecular grade water (RNase/DNase free)—(Invitrogen-10977-95); DTT (molecular grade—RNase/DNase free)—(Promega-V3151); Pluronic F-127—(Sigma Aldrich SKU #P2443); NaCl (RNase/DNase free)—(Sigma—S3014); 6His Terbium (TB) Cryptate—(CisBio—61HI2TLA); Streptavidin XL665 (CisBio—610SAXLA); AlphaPlate-1536 well flat bottom plate, Light gray (Perkin Elmer #6004350); and AlphaScreen Histidine Detection Kit (Perkin Elmer, Cat. No. 6760619C) containing AlphaScreen Nickel Chelate Acceptor Beads (5 mg/ml), and AlphaScreen Streptavidin Donor Beads (5 mg/ml).
(§1) FIG. 6 illustrates the FRET assay principle for MSI2 and U1A. The NUMB RNA probe for MSI2 was selected based on prior scientific publications and has the following sequence: 5′[…]-Biotin (SEQ ID NO: 1) (Oncotarget, 8(63): 106587-106597 (2017). The RNA probe for U1A was designed based on an interaction study between U1A and RNA done by NMR (Structure 4(5): 621-631 (1996)) and has the following sequence: 5′[…]-Biotin (SEQ ID NO: 2). The underlined sequence represents the part which interacts with the protein, the sequence of AYYGCAC should fit into the groove of U1A according to the NMR studies. The remaining sequence without underline is a spacer. The assay developed provides robust TR-FRET readout.
IC50 analysis of 512 compounds selected from the confirmation screen (MSI2:NUMB-Biotin5′) screen was performed. The 512 compounds were run in duplicate 10-point dose response curve with a high concentration of 100 μM and a low concentration of 5.6 nM. The total volume of the assay was 8 μl and all steps except for ECHO dispense were performed on Tempest disperser. 80 nL of compounds in DMSO was dispensed in 10 point titrations of 3× dilutions with the t concentration of 100 μM and the bottom concentration of 5.6 nM from 10 mM stock using ECHO acoustic dispenser-duplicate curves on the same assay plate. 2 μL of assay buffer was added, 2 μL of MSI2 (4× Conc.) final concentration of 5 nM was added, and incubated for 30 minutes. […]
Compound `Cc1cc(C)n2c(SCC(=O)c3cccc(N4CCCC4=O)c3)nnc2n1` [WXHTS0080223, 1-{3-[2-({5,7-dimethyl-[1,2,4]triazolo[4,3-a]pyrimidin-3-yl}sulfanyl)acetyl]phenyl}pyrrolidin-2-one] has an IC50 of 0.85 µM. For `O=c1cc(CN2CCn3c(nnc3-c3ccccc3)C2)[nH]c2ccnn12` [WXHTS0101810, 5-({3-phenyl-5H,6H, 7H,8H-[1,2,4]triazolo[4,3-a]pyrazin-7-yl}methyl)-4H,7H-pyrazolo[1,5-a]pyrimidin-7-one], the IC50 was 0.85 µM. With `Cc1ccc(C)n1-c1ccc(SCC(=O)O)cc1` [WXHTS0063086, 2-{[4-(2,5-dimethyl-1H-pyrrol-1-yl)phenyl]sulfanyl}acetic acid] the IC50 was 0.47 µM. Work on `CC(=O)N1CCC(NC(=O)c2cc(C)c(C)s2)CC1` [WXHTS0092123, N-(1-acetylpiperidin-4-yl)-4,5-dimethylthiophene-2-carboxamide] yielded an IC50 of 0.92 µM. `Cc1ccc(C)n1-c1sccc1C(=O)N1CC(C(N)=O)Oc2ccccc21` (stereo not drawn) [WXHTS0047719, 4-[2-(2,5-dimethyl-1H-pyrrol-1-yl)thiophene-3-carbonyl]-3,4-dihydro-2H-1,4-benzoxazine-2-carboxamide] was tested, and the IC50 was 0.71 µM.

The compounds below were run against T2, MSI2-RNA interaction (Homo sapiens, UniProt Q96DH6) (assay: MSI2 TR-FRET assay, primary screen and triplicate confirmation). Details: identified by the method disclosed herein.
T2 construct: purchased LS Bio G2396
T2 sequence (Q96DH6 whole entry): as above
Assay type: binding
Experimental: In some embodiments, inhibitory compounds of MSI2-RNA interactions were identified using the methods disclosed herein. In a primary screening of small molecule compound libraries using the MSI2 binding TR-FRET assay, 194,914 compounds were screened at 15 μM final concentration for induced inhibition of MSI2-RNA interaction. Hit compounds were selected with a cut-off of at least 30% inhibition. Subsequently, after analysis of donor- and acceptor-channels, and removal of potential detection artefacts, 1,391 compounds were selected and confirmed by MSI2 and U1A TR-FRET assays in triplicates and at 15 μM concentration (Table 1).
as §1
FIG. 7 illustrates the high throughput screening workflow. […] The hit cut-off criteria are >30% inhibition. The hit triaging is based on analysis of donor- and acceptor-channels, removal of potential detection artefacts. The hit confirmation is based on triplicate confirmation runs (15 μM) in MSI2 and U1A TR-FRET assays. The compound selection for dose-response is a dose-response testing in MSI2 and U1A to filter for compounds that have the drug potential. The hit selection for hit to lead (HTL) is based on QC on dose responsive hits SAR tractability, and model building for hit expansion.
`CC(=O)N1CCC(NC(=O)c2cc(C)c(C)s2)CC1` [N-(1-acetylpiperidin-4-yl)-4,5-dimethylthiophene-2-carboxamide] was tested, and the “inhibitor of MSI2-RNA interaction identified by the method” value (“inhibitor” below) was “inhibitors of MSI2-RNA interaction”. With `Cc1ccc(C)n1-c1ccc(SCC(=O)O)cc1` [2-{[4-(2,5-dimethyl-1H-pyrrol-1-yl)phenyl]sulfanyl}acetic acid] the “inhibitor” value was “inhibitors of MSI2-RNA interaction”. `O=c1cc(CN2CCn3c(nnc3-c3ccccc3)C2)[nH]c2ccnn12` [5-({3-phenyl-5H,6H, 7H,8H-[1,2,4]triazolo[4,3-a]pyrazin-7-yl}methyl)-4H,7H-pyrazolo[1,5-a]pyrimidin-7-one] was tested, and the “inhibitor” value was “inhibitors of MSI2-RNA interaction”. With `Cc1cc(C)n2c(SCC(=O)c3cccc(N4CCCC4=O)c3)nnc2n1` [1-{3-[2-({5,7-dimethyl-[1,2,4]triazolo[4,3-a]pyrimidin-3-yl}sulfanyl)acetyl]phenyl}pyrrolidin-2-one] the “inhibitor” value was “inhibitors of MSI2-RNA interaction”. `Cc1ccc(C)n1-c1sccc1C(=O)N1CC(C(N)=O)Oc2ccccc21` (stereo not drawn) [4-[2-(2,5-dimethyl-1H-pyrrol-1-yl)thiophene-3-carbonyl]-3,4-dihydro-2H-1,4-benzoxazine-2-carboxamide] was tested, and the “inhibitor” value was “inhibitors of MSI2-RNA interaction”.

What follows are compounds tested against T3, MSI2 protein and NUMB-Biotin5′ RNA (Homo sapiens, UniProt Q96DH6) (assay: MSI2:NUMB-CTRL RNA competition assay, HTRF (384 well plate)). Details: competitor RNA titrated from 1000 nM, 2× dilution over 9 points; MSI2 5 nM + NUMB-Biotin5′ 1.25 nM.
T3 construct: purchased LS Bio G2396
T3 sequence (Q96DH6 whole entry): as above
Assay type: binding
Experimental: (§2) MSI2: Numb/U1A:Target RNA Competition assay-HTRF (384 well plate): CisBio HTRF protocol was followed in a total assay volume of 20 μl. 5 μL of NUMB-CTRL RNA/Target-CTRL (4× Conc.) titrated in 10 point in 2× dilution, 5 μL of MSI2 protein/U1A protein (4× Conc.) final concentration of 5 nM was added to each well, 5 μL of NUMB-Biotin5′/Target-Biotin5′ RNA (4× Conc.) final concentration of 1.25 nM and Streptavidin XL665 acceptor (4×) final concentration of 5 nM were added, and incubated for 60 minutes at room temperature. 5 μL of 4×His TB cryptate, final concentration of 0.6 nM was added and incubated at room temperature for 60 minutes and read on envision. The assay buffer contained 150 mM NaCl, 25 mM HEPES pH 7.3, 1 mM DTT, and 0.05% pluronic F-127.
(§3) NUMB RNA or U1A target RNA was titrated starting from 1000 nM in 2× dilution over 9 points against MSI2 5 nM+NUMB-Biotin5′ 1.25 nM. […] NUMB RNA or U1A target RNA was titrated starting from 1000 nM in 2× dilution over 9 points against U1A 5 nM+U1A Target-Biotin5′ 1.25 nM. […] X axis: Log of CTRL RNA (M); Y axis: (Streptavidin XL665/6His TB cryptate ratio)*1000.
(§4) NUMB RNA or U1A target RNA was titrated starting from 1000 nM in 2× dilution over 9 points against MSI2 5 nM+NUMB-Biotin5′ 1.25 nM. […] NUMB RNA or U1A target RNA was titrated starting from 1000 nM in 2× dilution over 9 points against U1A 5 nM+U1A Target-Biotin5′ 1.25 nM. […]
For “NUMB RNA: non-biotinylated NUMB RNA that competes with NUMB-Biotin 5′ RNA to bind the MSI2 protein (UAGGUAGUAGUUUUA; non-biotinylated RNA, further chemistry not given here)”, the “displacement of the binding signal between MSI2 protein and NUMB-Biotin5′ RNA” value was “displaced the binding signal”.

Each compound was assayed against T4, U1A protein and U1A target-Biotin5′ RNA (Homo sapiens, UniProt P09012) (assay: U1A:Target-CTRL RNA competition assay, HTRF (384 well plate)). Details: competitor RNA titrated from 1000 nM, 2× dilution over 9 points; U1A 5 nM + U1A Target-Biotin5′ 1.25 nM.
T4 construct: purchased LS Bio G19194-10
T4 sequence (P09012 whole entry, species assumed): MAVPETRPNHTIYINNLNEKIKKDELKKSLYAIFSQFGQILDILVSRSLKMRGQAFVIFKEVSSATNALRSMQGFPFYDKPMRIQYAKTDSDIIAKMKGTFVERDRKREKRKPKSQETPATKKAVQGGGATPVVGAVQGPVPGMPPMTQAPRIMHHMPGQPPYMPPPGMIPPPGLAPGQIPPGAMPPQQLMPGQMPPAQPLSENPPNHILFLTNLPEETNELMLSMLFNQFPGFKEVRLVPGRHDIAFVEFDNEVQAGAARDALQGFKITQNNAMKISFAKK
Assay type: binding
Experimental: as §2, §3, §4
In the case of “NUMB RNA: non-biotinylated NUMB RNA that competes with NUMB-Biotin 5′ RNA to bind the MSI2 protein (UAGGUAGUAGUUUUA; non-biotinylated RNA, further chemistry not given here)”, the “displacement of the binding signal between U1A protein and U1A target-Biotin5′ RNA” value is reported as “did not displace the binding signal”.
